Data: patent US12486218B2, “Compounds advantageous in the treatment of central nervous system diseases and disorders” (AurimMed Pharma, Inc., priority 2008, dated 2025)
Read-outs that look alike come from different tables or passages of the source.

Legend:
[1] = test system: rats; experiment: Pilocarpine-induced Status Epilepticus in Rats (prevention; intervention @ 30 min); conditions: for Prevention, Protection: rats, pilocarpine-induced status epilepticus
Description: The animal testing was performed using the protocols developed in the Anticonvulsant Screening Program (ASP) at the National Institute of Neurological Disorders and Stroke (NINDS), National Institutes of Health (NIH).

[2] = test system: mice; experiment: 6 Hz (minimal clonic seizure) model, mice i.p.; format: in vivo; conditions: for 6 Hz (32 mA), fraction of animals: mice i.p.; for activity in the 6 Hz (minimal clonic seizure) model: mice
[3] = test system: mice; experiment: Subcutaneous Metrazol Seizure threshold (s.c. MET) test, mice i.p.; format: in vivo; conditions: for activity in the s.c. MET test: mice, at 300 mg/kg; for s.c. MET, fraction of animals: mice i.p.
[4] = test system: mice; experiment: Maximal Electroshock Seizure (MES) test, mice i.p.; format: in vivo; conditions: for activity in the MES test: mice; for MES, fraction of animals: mice i.p.
[5] = test system: SMN2 promoter; experiment: SMN2 promoter β-lactamase reporter assay in NSC34 motor neuron-like cells; format: cell-based; conditions: for Promoter (SMN2 promoter test, summary YES/NO): Table 13 summary; for SMN2 promoter activity: treatment for 19 hours at a concentration of 1 μM
Description: FIG. 30 illustrates a screen for SMN2 expression of a number of compounds described herein.
SMN2 promoter activity was measured using NSC34 motor neuron-like cells stably transfected with a β-lactamase (BLA) reporter gene under the control of a 3.4-kilobase fragment of the SMN2 promoter. D156844 was used as a positive control for this assay.

[6] = Rattus norvegicus, read-out: Prevention, Protection
[7] = Rattus norvegicus, 0.5 h, read-out: Intervention @ 30 min, Protection

CCC(CC(N)=O)c1ccc(OC)cc1 (stereo not shown) [AB, 3-(4-Methoxy-phenyl)-pentanoicacid amide]
responders at 450 mg/kg [1, 6]: 100%

CC(C)C[C@@H](NC(=O)CC(C)c1ccc(OC(F)(F)F)cc1)C(N)=O (stereo partly drawn) [BP, (R)-4-Methyl-2-[3-(4-trifluoromethoxy-phenyl)-butyrylamino]-pentanoic acid amide]
6 Hz (32 mA), fraction of animals ([2]; 100 mg/kg @ 0.25 hr): 1/4 @ 0.25

CC(CC(N)=O)c1cccc(F)c1 (stereo not shown) [Compound D, 3-(3-Fluorophenyl)butyramide]
activity in the s.c. MET test [3]: activity
activity in the MES test ([4]; at 300 mg/kg): activity
responders at 400 mg/kg [1, 7]: 75%
responders at 200 mg/kg [1, 6]: 100%

Cc1ccc(C(C)CC(N)=O)cn1 (racemic) [CH]
6 Hz (32 mA), fraction of animals ([2]; 50 mg/kg @ 0.25 hr): 1/4, 1/4
6 Hz (32 mA), fraction of animals ([2]; 50 mg/kg @ 0.5 hr): 1/4, 1/4

CC(C)C[C@H](NC(=O)[C@@H]1C[C@H]1c1ccccc1)C(N)=O (mixture of isomers) [Compound Q, trans-2-Phenylcyclopropane-carboxylic acid-((S)-1-carbamoyl-3-methylbutyl)amide]
activity in the 6 Hz (minimal clonic seizure) model ([2]; at 300 mg/kg): activity

CC[C@H](NC(=O)CC(C)c1ccc(OC(F)(F)F)cc1)C(N)=O (stereo partly drawn) [BR, N-((S)-1-Carbamoyl-propyl)-3-(4-trifluoromethoxy-phenyl)-butyramide]
6 Hz (32 mA), fraction of animals ([2]; 100 mg/kg @ 0.5 hr): 1/4 @ 0.5
activity in the MES test ([4]; at 100 mg/kg): activity

CCOc1ccc(C(C)CC(N)=O)cc1 (racemic) [CA]
activity in the 6 Hz (minimal clonic seizure) model ([2]; at 100 mg/kg): activity
Promoter (SMN2 promoter test, summary YES/NO) [5]: YES
SMN2 promoter activity [5]: increased SMN2 promoter activity
Prevention, Protection ([1]; dose 600 mg/kg): 100%

CC(CC(N)=O)Oc1ccc(C#N)cc1 (stereo not shown) [Compound O, 3-(4-Cyanophenoxy)butyramide]
responders at 450 mg/kg [1, 6]: 50%

CC(CC(N)=O)c1ccc2c(c1)OCCO2 (stereo not shown) [K, 3-(3,4-ethylenedioxy-phenyl)butyramide]
SMN2 promoter assay, particularly strong hits ([5]; NSC34 BLA reporter cells): particularly strong hits
Promoter (SMN2 promoter test, summary YES/NO) [5]: YES
SMN2 promoter activity [5]: increased SMN2 promoter activity
responders at 600 mg/kg [1, 7]: 38%
responders at 300 mg/kg [1, 6]: 50%

Cc1nc2ccccc2nc1C(C)CC(N)=O (racemic) [DE]
6 Hz (32 mA), fraction of animals ([2]; 100 mg/kg @ 0.25 hr): 1/4 @
6 Hz (32 mA), fraction of animals ([2]; 100 mg/kg @ 0.5 hr): 1/4 @

CC[C@H](NC(=O)[C@@H]1C[C@H]1c1ccccc1)C(N)=O (mixture of isomers) [Compound Q-1, trans-2-Phenylcyclopropane-carboxylic acid-((S)-1-carbamoyl-propyl)amide]
activity in the s.c. MET test [3]: activity
6 Hz (32 mA), fraction of animals ([2]; 50 mg/kg @ 0.25 hr): 1/4 @0.25
6 Hz (32 mA), fraction of animals ([2]; 100 mg/kg @ 0.25 hr): 4/4
6 Hz (32 mA), fraction of animals ([2]; 100 mg/kg @ 0.5 hr): 3/4
6 Hz (32 mA), fraction of animals ([2]; 100 mg/kg @ 1.0 hr): 4/4
6 Hz (32 mA), fraction of animals ([2]; 100 mg/kg @ 2.0 hr): 1/4
activity in the 6 Hz (minimal clonic seizure) model ([2]; at 100 mg/kg): activity
MES, fraction of animals ([4]; 100 mg/kg @ 0.5 hr): 2/3
MES, fraction of animals ([4]; 100 mg/kg @ 4.0 hr): 1/3
activity in the MES test ([4]; at 300 mg/kg): activity

CC(CC(=O)N1CCC(C(N)=O)CC1)c1ccc(OC(F)(F)F)cc1 (stereo not shown) [BN, 1-[3-(4-Trifluoromethoxy-phenyl)-butyryl]-piperidine-4carboxylic acidamide]
SMN2 promoter assay, evidence of activity (may warrant further study) ([5]; NSC34 BLA reporter cells): show evidence of activity
activity in the MES test ([4]; at 300 mg/kg): activity

Cc1nccnc1C(C)CC(N)=O (racemic) [CZ]
6 Hz (32 mA), fraction of animals ([2]; 100 mg/kg @ 0.25 hr): 1/4 @
6 Hz (32 mA), fraction of animals ([2]; 100 mg/kg @ 0.5 hr): 1/4 @
6 Hz (32 mA), fraction of animals ([2]; 100 mg/kg @ 2.0 hr): hrs and 2/4

CCNC(=O)CC(C)c1ccc(OC(F)(F)F)cc1 (stereo not shown) [BF, N-Ethyl-3-(4-trifluoromethoxy-phenyl)-butyramide]
activity in the s.c. MET test [3]: activity
6 Hz (32 mA), fraction of animals ([2]; 100 mg/kg @ 0.25 hr): 3/4
6 Hz (32 mA), fraction of animals ([2]; 100 mg/kg @ 0.5 hr): 4/4
6 Hz (32 mA), fraction of animals ([2]; 100 mg/kg @ 1.0 hr): 2/4
6 Hz (32 mA), fraction of animals ([2]; 100 mg/kg @ 2.0 hr): 3/4
activity in the MES test ([4]; at 300 mg/kg): activity
responders at 200 mg/kg [1, 6]: 88%

CC(CC(=O)N[C@@H](C)C(N)=O)c1ccc(OC(F)(F)F)cc1 (stereo partly drawn) [BS, N-((S)-1-Carbamoyl-ethyl)-3-(4-trifluoromethoxy-phenyl)-butyramide]
6 Hz (32 mA), fraction of animals ([2]; 100 mg/kg @ 1.0 hr): 1/4 @ 1.0
activity in the MES test ([4]; at 300 mg/kg): activity

CC(C)Oc1ccc(C(C)CC(N)=O)cc1 (racemic) [CB]
MES, fraction of animals ([4]; 100 mg/kg @ 0.25 hr): 3/3
MES, fraction of animals ([4]; 100 mg/kg @ 1.0 hr): 1/3
Prevention, Protection ([1]; dose 200 mg/kg): 100%

CC(CC(N)=O)c1cnccn1 (racemic) [DC]
Promoter (SMN2 promoter test, summary YES/NO) [5]: YES
SMN2 promoter activity [5]: increased SMN2 promoter activity

CC(CC(=O)N1CCOCC1)c1ccc(OC(F)(F)F)cc1 (stereo not shown) [BI, 1-Morpholin-4-yl-3-(4-trifluoromethoxy-phenyl)-butan-1-one]
activity in the s.c. MET test [3]: activity
6 Hz (32 mA), fraction of animals ([2]; 50 mg/kg @ 0.25 hr): 2/4
6 Hz (32 mA), fraction of animals ([2]; 50 mg/kg @ 0.5 hr): 1/4

CC(C)C(CC(N)=O)c1ccc(Cl)cc1 (stereo not shown) [AR, 3-(4-Chloro-phenyl)-4-methyl-pentanoic-acid-amide]
activity in the s.c. MET test [3]: activity
6 Hz (32 mA), fraction of animals ([2]; 100 mg/kg @ 0.25 hr): 3/4
6 Hz (32 mA), fraction of animals ([2]; 100 mg/kg @ 0.5 hr): 2/4
SMN2 promoter assay, evidence of activity (may warrant further study) ([5]; NSC34 BLA reporter cells): show evidence of activity
activity in the MES test ([4]; at 300 mg/kg): activity

COc1ccc(C(C)CC(N)=O)cc1Cl (stereo not shown) [J, 3-(3-chloro-4-methoxy-phenyl)butyramide]
activity in the s.c. MET test [3]: activity
responders at 600 mg/kg [1, 7]: 38%
responders at 600 mg/kg [1, 6]: 75%

CNC(=O)CC(C)c1ccc(OC(F)(F)F)cc1 (stereo not shown) [BC, N-Methyl-3-(4-trifluoromethoxyphenyl)-butyramide]
activity in the s.c. MET test [3]: activity

CCc1nccnc1C(C)CC(N)=O (racemic) [DB]
6 Hz (32 mA), fraction of animals ([2]; 100 mg/kg @ 4.0 hr): 1/4 @ 4.0 hrs.
SMN2 promoter activity [5]: increased SMN2 promoter activity

NC(=O)CC(c1ccc2c(c1)OCCO2)C1CC1 (stereo not shown) [AP, 3-Cyclopropyl-3-(2,3dihydro-benzo[1,4]dioxin-6-yl)propionamide]
activity in the s.c. MET test [3]: activity
activity in the MES test ([4]; at 300 mg/kg): activity
responders at 600 mg/kg [1, 7]: 75%
responders at 450 mg/kg [1, 6]: 75%

Cc1cnc(C(C)CC(N)=O)c(C)n1 (racemic) [DD]
6 Hz (32 mA), fraction of animals ([2]; 100 mg/kg @ 0.5 hr): 1/4 @ 0.5 hr,
Promoter (SMN2 promoter test, summary YES/NO) [5]: YES
SMN2 promoter activity [5]: increased SMN2 promoter activity

NC(=O)C1CC1(c1ccccc1)c1ccccc1 (stereo not shown) [BB, 2,2-Diphenyl-cyclopropanecarboxylicacid amide]
activity in the 6 Hz (minimal clonic seizure) model ([2]; at 100 mg/kg): activity
SMN2 promoter activity [5]: increased SMN2 promoter activity

COc1ccc(C2(CC(N)=O)CCCC2)cc1 [AZ]
SMN2 promoter activity [5]: increased SMN2 promoter activity

Cc1ccc(C(C)CC(N)=O)c(C)n1 (racemic) [DF]
6 Hz (32 mA), fraction of animals ([2]; 100 mg/kg @ 2.0 hr): 1/4 @ 2.0
6 Hz (32 mA), fraction of animals ([2]; 100 mg/kg @ 4.0 hr): 1/4 @ 2.0

NC(=O)CC1(c2ccc(Cl)cc2)CCCCC1 [AK]
6 Hz (32 mA), fraction of animals ([2]; 100 mg/kg @ 0.25 hr): 4/4
6 Hz (32 mA), fraction of animals ([2]; 100 mg/kg @ 0.5 hr): 3/4
6 Hz (32 mA), fraction of animals ([2]; 100 mg/kg @ 1.0 hr): 1/4 @
MES, fraction of animals ([4]; 100 mg/kg @ 0.25 hr): 3/4
MES, fraction of animals ([4]; 100 mg/kg @ 2.0 hr): 1/4

CC(CC(N)=O)c1ccc(Cl)c(Cl)c1 (stereo not shown) [BW, 3-[3,4-dichloro-phenyl]butyramide]
s.c. MET, fraction of animals ([3]; 30 mg/kg @ 4.0 hr): 1/1 @ 4.0
s.c. MET, fraction of animals ([3]; 100 mg/kg @ 4.0 hr): 1/1 @ 4.0
MES, fraction of animals ([4]; 100 mg/kg @ 0.5 hr): 1/3 @

CC(C)c1ccc(C(C)CC(N)=O)cc1 (stereo not shown) [Compound AW, 3-(4-Isopropylphenyl)butyramide]
6 Hz (32 mA), fraction of animals ([2]; 200 mg/kg @ 0.25 hr): 4/4, 4/4 @
6 Hz (32 mA), fraction of animals ([2]; 200 mg/kg @ 0.5 hr): 4/4, 4/4 @
activity in the 6 Hz (minimal clonic seizure) model ([2]; at 200 mg/kg): activity
SMN2 promoter activity [5]: increased SMN2 promoter activity
activity in the MES test ([4]; at 300 mg/kg): activity
responders at 200 mg/kg [1, 7]: 25%
responders at 450 mg/kg [1, 6]: 75%

COc1ccc(C(C)CC(N)=O)cn1 (racemic) [CI]
6 Hz (32 mA), fraction of animals ([2]; 100 mg/kg @ 0.25 hr): 1/4 @ 0.25 hr

CC(O)(CC(N)=O)c1ccc(OC(F)(F)F)cc1 (stereo not shown) [Compound CC, 3-hydroxy-3-(4(trifluoromethoxy)-phenyl)butanamide]
MES, fraction of animals ([4]; 100 mg/kg @ 0.5 hr): 3/3
MES, fraction of animals ([4]; 100 mg/kg @ 4.0 hr): 2/3
responders at 200 mg/kg [1, 6]: 100%
